Among the data in patent US20250019387A1 (Frontier Medicines Corporation, priority 0001, published 2025) are IC50 values, retold here.

pIC50: −log10 of the molar value. Some results are limits rather than exact numbers.

The target in this test is KRAS G12C and cRAF (Ras-binding domain) interaction (Homo sapiens (Human), UniProt P01116, C118S/C51S/C80L/G12C). The test is described as follows: Inhibition of KRAS G12C and cRAF binding (AlphaScreen). The settings on record: additional exemplary compounds; KRAS G12C and cRAF binding; read-out: RAF1 RBD IC50. In a few lines: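 IC50 values come from 4-parameter nonlinear regression of AlphaScreen signal (680 nm excitation, 570 nm emission). Compound plates sat 19-20 h at room temperature before RBD and donor/acceptor beads were added in Hepes pH 7.4 buffer with 150 mM NaCl, 5 mM MgCl2, 2% DMSO for 60-90 min; biotin-AviTag-GST replaced RBD to flag assay-technology interferers.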
Sequence of KRAS G12C and cRAF (Ras-binding domain) interaction (P01116 other isoform, or with tags, fused parts or gaps G12C/C51S/C80L/C118S): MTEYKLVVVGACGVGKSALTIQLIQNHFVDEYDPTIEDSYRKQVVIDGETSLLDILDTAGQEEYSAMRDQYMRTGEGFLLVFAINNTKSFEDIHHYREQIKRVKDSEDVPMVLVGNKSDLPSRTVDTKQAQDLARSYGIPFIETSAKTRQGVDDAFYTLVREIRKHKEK
(In general: Bead proximity is the source of the signal in Alpha formats.)
Broadly, the pIC50 is the IC50 on a negative log10 scale, so that one unit is a factor of ten. Take `C=CC(=O)CCCN(C)c1nc(OC[C@@H]2CCCN2C)nc2c1CCN(c1cccc3ccccc13)C2`: the negative-log IC50 (pIC50) is less than 6.30.
Consider `CN(C)C(=O)/C=C/C(=O)N1CC[C@@H](N(C)c2nc(OCC34CCCN3CCC4)nc3c2CCN(c2cccc4cccc(Cl)c24)C3)C1`, for which the pIC50 was less than 6.30.
On to `C=CC(=O)CCCCN(C)c1nc(OC[C@@H]2CCCN2C)nc2c1CCN(c1cccc3ccccc13)C2`, for which the negative logarithm of the IC50 (pIC50) was 6.30 to 7.00.
The result for `CN(C)C(=O)/C=C/C(=O)N1CC[C@@H](N(C)c2nc(OCC34CCCN3CCC4)nc3c(F)c(-c4cccc5cccc(Cl)c45)ncc23)C1` reads less than 6.30; that for `C/C=C/C(=O)CN(C)c1nc(OC[C@@H]2CCCN2C)nc2c1CCN(c1cccc3ccccc13)C2`, less than 6.30; that for `CN(C)C(=O)/C=C/C(=O)N1CC(CN(C)c2nc(OCC34CCCN3CCC4)nc3c2CCN(c2cccc4cccc(Cl)c24)C3)C1`, less than 6.30.
As to `CN(CCC1CN(C#N)C1)c1nc(OCC23CCCN2CCC3)nc2c1CCN(c1cccc3cccc(Cl)c13)C2`, the pIC50 was 6.30 to 7.00.
`O=C(/C=C/CN1CCOCC1)N1CC2CC(C1)N2c1nc(OC[C@@]23CCCN2C[C@H](F)C3)nc2c(F)c(-c3cccc4cccc(Cl)c34)ncc12`: the pIC50 is less than 6.30.
The result for `C=CC(=O)N1CC[C@@H](N(C)c2nc(OC[C@@H]3CCCN3C)nc3c(F)c(-c4cccc5cccc(Cl)c45)ncc23)C1` reads less than 6.30; that for `O=C(/C=C/CN1CCOCC1)N1C2CC1CN(c1nc(OC[C@@]34CCCN3C[C@H](F)C4)nc3c(F)c(-c4cccc5cccc(Cl)c45)ncc13)C2`, less than 6.30; that for `Cc1ncc(/C=C/C(=O)NCCN(C)c2nc(OCC34CCCN3CCC4)nc3c2CCN(c2cccc4cccc(Cl)c24)C3)o1`, 6.30 to 7.00.
As to `O=C(/C=C/CN1CCOCC1)N1C[C@@H]2C[C@H]1CN2c1nc(OC[C@@]23CCCN2C[C@H](F)C3)nc2c(F)c(-c3cccc4cccc(Cl)c34)ncc12`, the pIC50 was less than 6.30.
As for `CN(C)C/C=C/S(=O)(=O)CCN(C)c1nc(OCC23CCCN2CCC3)nc2c1CCN(c1cccc3cccc(Cl)c13)C2`, the negative logarithm of the IC50 (pIC50) is greater than 8.00.
Regarding `O=C(/C=C/CN1CCOCC1)N1C[C@H]2C[C@@H]1CN2c1nc(OC[C@@]23CCCN2C[C@H](F)C3)nc2c(F)c(-c3cccc4cccc(Cl)c34)ncc12`, the negative-log IC50 (pIC50) was less than 6.30.
Regarding `CN(CCS(=O)(=O)/C=C/CN1CC(F)C1)c1nc(OCC23CCCN2CCC3)nc2c1CCN(c1cccc3cccc(Cl)c13)C2`, the pIC50 is 6.30 to 7.00.
The figure for `O=C(/C=C/CN1CCOCC1)N1C[C@H]2CC[C@@H](C1)N2c1nc(OC[C@@]23CCCN2C[C@H](F)C3)nc2c(F)c(-c3cccc4cccc(Cl)c34)ncc12` is less than 6.30; for `O=C(/C=C/CN1CCOCC1)N1[C@@H]2CC[C@H]1CN(c1nc(OC[C@@]34CCCN3C[C@H](F)C4)nc3c(F)c(-c4cccc5cccc(Cl)c45)ncc13)C2` it is less than 6.30.
On to `CN(CC1CN(C#N)C1)c1nc(OC[C@@H]2CCCN2C)nc2c(F)c(-c3cccc4cccc(Cl)c34)ncc12`, for which the pIC50 was less than 6.30.
The result for `Cc1nccc(/C=C/C(=O)N2C[C@H]3CC[C@@H](C2)N3c2nc(OC[C@@]34CCCN3C[C@H](F)C4)nc3c(F)c(-c4cccc5cccc(Cl)c45)ncc23)n1` reads less than 6.30.
`Cc1nccc(/C=C/C(=O)N2[C@@H]3CC[C@H]2CN(c2nc(OC[C@@]45CCCN4C[C@H](F)C5)nc4c(F)c(-c5cccc6cccc(Cl)c56)ncc24)C3)n1`: the negative logarithm of the IC50 (pIC50) is less than 6.30.
Take `Cc1nccc(/C=C/C(=O)N2CCN(c3nc(OC[C@@]45CCCN4C[C@H](F)C5)nc4c(F)c(-c5cccc6cccc(Cl)c56)ncc34)C3CC32)n1` (stereo partly drawn): the negative logarithm of the IC50 (pIC50) is less than 6.30.
Turning to `CN(c1nc(OCC23CCCN2CCC3)nc2c(F)c(-c3cccc4cccc(Cl)c34)ncc12)[C@@H]1CCN(C#N)C1`, the pIC50 is greater than 8.00.
For `O=C(/C=C/CN1C2CCC1COC2)N1CCN(c2nc(OC[C@@]34CCCN3C[C@H](F)C4)nc3c(F)c(-c4cccc5cccc(Cl)c45)ncc23)C2CC21` (stereo partly drawn), the negative-log IC50 (pIC50) is less than 6.30.
In the case of `CN(C)C/C=C/C(=O)N1CC[C@@H](N(C)c2nc(OCC34CCCN3CCC4)nc3c2CCN(c2cccc4cccc(Cl)c24)C3)C1`, the pIC50 is 7.00 to 8.00.
As to `C=CC(=O)N1CC[C@@H](N(C)c2nc(OC[C@@]34CCCN3C[C@H](F)C4)nc3c(F)c(-c4cccc5cccc(C(F)(F)F)c45)ncc23)C1`, the pIC50 was 7.00 to 8.00.
With `COC/C=C/C(=O)N1CC[C@@H](N(C)c2nc(OCC34CCCN3CCC4)nc3c(F)c(-c4cccc5cccc(Cl)c45)ncc23)C1`, the negative logarithm of the IC50 (pIC50) was 7.00 to 8.00.
For `O=C(/C=C/CN1[C@@H]2CC[C@H]1COC2)N1CCN(c2nc(OC[C@@]34CCCN3C[C@H](F)C4)nc3c(F)c(-c4cccc5cccc(Cl)c45)ncc23)CC12CC2`, the pIC50 was less than 6.30.
The figure for `CN(CC1CN(C#N)C1)c1nc(OCC23CCCN2CCC3)nc2c1CCN(c1cccc3cccc(Cl)c13)C2` is 6.30 to 7.00; for `O=C(/C=C/CN1[C@@H]2CC[C@H]1COC2)N1CCN(c2nc(OC[C@@]34CCCN3C[C@H](F)C4)nc3c(F)c(-c4cccc5cccc(Cl)c45)ncc23)C2(CC2)C1` it is less than 6.30; for `C=CS(=O)(=O)CCN(C)c1nc(OCC23CCCN2CCC3)nc2c(F)c(-c3cccc4cccc(Cl)c34)ncc12` it is greater than 8.00.
For the compound `C#Cc1c(F)ccc2cccc(-c3ncc4c(N(C)[C@@H]5CCN(C(=O)/C=C/c6ccncc6)C5)nc(OC[C@@]56CCCN5C[C@H](F)C6)nc4c3F)c12`, the negative-log IC50 (pIC50) was less than 6.30.
For the compound `C#Cc1c(F)ccc2cccc(-c3ncc4c(N(C)[C@@H]5CCN(C(=O)/C=C/c6ccccn6)C5)nc(OC[C@@]56CCCN5C[C@H](F)C6)nc4c3F)c12`, the negative logarithm of the IC50 (pIC50) was less than 6.30.
Turning to `C=CC(=O)N1CC[C@@H](N(C)c2nc(OCC34CCCN3CCC4)nc3c(F)c(-c4cccc5cccc(Cl)c45)ncc23)C1`, the negative-log IC50 (pIC50) was 6.30 to 7.00.
`C#Cc1c(F)ccc2cccc(-c3ncc4c(N(C)[C@@H]5CCN(C(=O)/C=C/c6cccnc6)C5)nc(OC[C@@]56CCCN5C[C@H](F)C6)nc4c3F)c12`: the pIC50 was less than 6.30.
Regarding `C=CC(=O)N1CC[C@@H](N(C)c2nc(OC[C@@]34CCCN3C[C@H](F)C4)nc3c2CCN(c2cccc4cccc(Cl)c24)C3)C1`, the negative logarithm of the IC50 (pIC50) is 6.30 to 7.00.
The figure for `C=CC(=O)N1CC[C@@H](C)[C@@H](Nc2nc(OC[C@@]34CCCN3C[C@H](F)C4)nc3c(F)c(-c4cccc5cccc(Cl)c45)ncc23)C1` is less than 6.30; for `C=CS(=O)(=O)C1CCCN(c2nc(OCC34CCCN3CCC4)nc3c2CCN(c2cccc4cccc(Cl)c24)C3)C1` (stereo not drawn) it is 7.00 to 8.00; for `C=CC(=O)N1CCC[C@@H](Nc2nc(OC[C@@]34CCCN3C[C@H](F)C4)nc3c(F)c(-c4cccc5cccc(Cl)c45)ncc23)C1` it is less than 6.30.
Take `C=CC(=O)N1CC2CC(Nc3nc(OC[C@@]45CCCN4C[C@H](F)C5)nc4c(F)c(-c5cccc6cccc(Cl)c56)ncc34)C1C2` (stereo partly drawn): the negative logarithm of the IC50 (pIC50) was less than 6.30.
On to `CN(C)C/C=C/C(=O)N1CC[C@@H](N(C)c2nc(OC[C@@H]3CCCN3C)nc3c2CCN(c2cccc4cccc(Cl)c24)C3)C1`, for which the negative logarithm of the IC50 (pIC50) was 6.30 to 7.00.
On to `C=CC(=O)N1C[C@@H](C)C[C@@H](Nc2nc(OC[C@@]34CCCN3C[C@H](F)C4)nc3c(F)c(-c4cccc5cccc(Cl)c45)ncc23)C1`, for which the pIC50 is less than 6.30.
Take `C=CC(=O)N1CC[C@@H](N(C)c2nc(OC[C@@]34CCCN3C[C@H](F)C4)nc3c(F)c(-c4cccc5cccc(Cl)c45)ncc23)C1`: the negative-log IC50 (pIC50) is 7.00 to 8.00.
Regarding `C=CC(=O)N1C[C@H](C)C[C@H](Nc2nc(OC[C@@]34CCCN3C[C@H](F)C4)nc3c(F)c(-c4cccc5cccc(Cl)c45)ncc23)C1`, the pIC50 was less than 6.30.
`C=CC(=O)N1CC[C@H](F)[C@@H](N(C)c2nc(OC[C@@]34CCCN3C[C@H](F)C4)nc3c(F)c(-c4cccc5cccc(Cl)c45)ncc23)C1`: the negative-log IC50 (pIC50) was less than 6.30.
The figure for `Cc1cc(/C=C/C(=O)N2CCC[C@@H](N(C)c3nc(OC[C@@]45CCCN4C[C@H](F)C5)nc4c(F)c(-c5cccc6cccc(Cl)c56)ncc34)C2)nc(C)n1` is less than 6.30; for `C#Cc1c(F)ccc2cccc(-c3ncc4c(N(C)[C@@H]5CCCN(C(=O)/C=C/c6cc(C)nc(C)n6)C5)nc(OC[C@@]56CCCN5C[C@H](F)C6)nc4c3F)c12` it is 6.30 to 7.00; for `C=CC(=O)N1CC[C@H](C)[C@H](Nc2nc(OC[C@@]34CCCN3C[C@H](F)C4)nc3c(F)c(-c4cccc5cccc(Cl)c45)ncc23)C1` it is less than 6.30.
`C=CC(=O)N1CC[C@H](O)[C@@H](N(C)c2nc(OC[C@@]34CCCN3C[C@H](F)C4)nc3c(F)c(-c4cccc5cccc(Cl)c45)ncc23)C1`: the pIC50 was 7.00 to 8.00.
In the case of `C=CC(=O)N1CC[C@@H](F)[C@@H](N(C)c2nc(OC[C@@]34CCCN3C[C@H](F)C4)nc3c(F)c(-c4cccc5cccc(Cl)c45)ncc23)C1`, the negative-log IC50 (pIC50) is less than 6.30.
The result for `C=CC(=O)N1CCC(CNc2nc(OC[C@@]34CCCN3C[C@H](F)C4)nc3c(F)c(-c4cccc5cccc(Cl)c45)ncc23)C1` (stereo partly drawn) reads less than 6.30; that for `Cc1noc(/C=C/C(=O)NCCN(C)c2nc(OCC34CCCN3CCC4)nc3c2CCN(c2cccc4cccc(Cl)c24)C3)n1`, 6.30 to 7.00.
As to `C=CC(=O)N1CCCC1CNc1nc(OC[C@@]23CCCN2C[C@H](F)C3)nc2c(F)c(-c3cccc4cccc(Cl)c34)ncc12` (stereo partly drawn), the pIC50 is less than 6.30.
For `Cc1nc(/C=C/C(=O)NCCN(C)c2nc(OCC34CCCN3CCC4)nc3c2CCN(c2cccc4cccc(Cl)c24)C3)no1`, the pIC50 was less than 6.30.
For `C=CC(=O)N1CC[C@@H](O)[C@H](N(C)c2nc(OC[C@@]34CCCN3C[C@H](F)C4)nc3c(F)c(-c4cccc5cccc(Cl)c45)ncc23)C1`, the negative-log IC50 (pIC50) was less than 6.30.
The figure for `CN(CCS(=O)(=O)/C=C/CN1CCC(F)(F)C1)c1nc(OCC23CCCN2CCC3)nc2c1CCN(c1cccc3cccc(Cl)c13)C2` is less than 6.30; for `C=CC(=O)N1CCC(CN(C)c2nc(OC[C@@]34CCCN3C[C@H](F)C4)nc3c(F)c(-c4cccc5cccc(Cl)c45)ncc23)C1` (stereo partly drawn) it is less than 6.30; for `CN(c1nc(OCC23CCCN2CCC3)nc2c1CCN(c1cccc3cccc(Cl)c13)C2)[C@@H]1CCN(C(=O)/C=C/CN2CC(F)(F)C2)C1` it is 6.30 to 7.00.
